SMILES strings stand for the structures. Where two headings read alike, the source gives them in different places. Some results are limits rather than exact numbers.

Here are results for eight molecules from patent publication US12590099B2, “Inhibitors of histone deacetylase useful for the treatment or prevention of HIV infection” (Merck Sharp & Dohme LLC, priority 2018, dated 2026).

In one experiment the test system is KARN cells (Jurkat 2C4). Kind of experiment: cells. Type of experiment: cell-based. Conditions: luciferase induction, 100% = 2 μM SAHA. The gist of the method: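 Luminescence (Steady-Glo, 10 min, room temperature) measured next day in KARN Jurkat 2C4 cells given compounds at up to 40 μM final with 0.4% DMSO. Percent activation normalised to DMSO (0%) and 2 μM SAHA (100%), fitted by 4-parameter curve.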

The target in experiment [1] is T1, Recombinant human HDAC3/SMRT heterodimer (Homo sapiens, UniProt O15379).
T1 construct: FLAG (C); made in house
T1 sequence (O15379 whole entry): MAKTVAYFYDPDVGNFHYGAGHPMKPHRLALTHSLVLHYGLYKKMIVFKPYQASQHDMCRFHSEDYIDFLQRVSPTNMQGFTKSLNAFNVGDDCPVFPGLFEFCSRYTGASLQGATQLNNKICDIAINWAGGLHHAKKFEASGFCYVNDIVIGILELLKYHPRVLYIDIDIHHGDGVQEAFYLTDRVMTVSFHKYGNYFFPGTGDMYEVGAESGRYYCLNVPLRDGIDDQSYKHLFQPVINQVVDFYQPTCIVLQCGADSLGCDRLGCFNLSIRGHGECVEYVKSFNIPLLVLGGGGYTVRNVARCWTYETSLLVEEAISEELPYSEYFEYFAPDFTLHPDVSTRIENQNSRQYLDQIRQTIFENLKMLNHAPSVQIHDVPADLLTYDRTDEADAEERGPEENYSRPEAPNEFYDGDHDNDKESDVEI
T1 sequence (Q9Y618 1-899 partner limits assumed): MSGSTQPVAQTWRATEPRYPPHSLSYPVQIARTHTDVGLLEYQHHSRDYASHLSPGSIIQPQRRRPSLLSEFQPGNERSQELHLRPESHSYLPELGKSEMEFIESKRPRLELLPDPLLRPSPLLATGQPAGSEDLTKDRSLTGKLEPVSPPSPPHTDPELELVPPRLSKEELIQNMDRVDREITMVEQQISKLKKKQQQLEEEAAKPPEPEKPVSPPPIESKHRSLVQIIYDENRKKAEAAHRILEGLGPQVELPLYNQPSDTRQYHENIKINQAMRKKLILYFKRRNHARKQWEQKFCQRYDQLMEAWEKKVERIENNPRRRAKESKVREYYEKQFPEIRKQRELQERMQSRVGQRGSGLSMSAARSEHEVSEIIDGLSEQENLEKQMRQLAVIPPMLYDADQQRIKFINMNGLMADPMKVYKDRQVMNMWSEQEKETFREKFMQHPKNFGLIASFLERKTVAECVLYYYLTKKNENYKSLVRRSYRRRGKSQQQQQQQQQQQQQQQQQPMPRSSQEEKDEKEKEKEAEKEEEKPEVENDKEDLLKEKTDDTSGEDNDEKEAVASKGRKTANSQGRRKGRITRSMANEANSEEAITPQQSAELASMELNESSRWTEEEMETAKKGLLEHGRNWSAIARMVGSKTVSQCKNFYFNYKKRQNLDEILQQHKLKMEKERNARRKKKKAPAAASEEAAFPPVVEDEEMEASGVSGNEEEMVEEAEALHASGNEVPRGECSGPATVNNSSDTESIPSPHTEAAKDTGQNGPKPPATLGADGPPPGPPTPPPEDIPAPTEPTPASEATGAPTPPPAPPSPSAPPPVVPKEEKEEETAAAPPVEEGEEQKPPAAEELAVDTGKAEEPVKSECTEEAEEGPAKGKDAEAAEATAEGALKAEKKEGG
Kind of experiment: Human HDAC enzyme inhibitor Fluor-de-Lys assay, HDAC3/SMRT. The following applies: recombinant human HDAC3/SMRT, Fluor-de-Lys assay. Type of experiment: biochemical.

Where [2] appears, read: Homo sapiens, Jurkat, read-out: Karn EC50 (nM) 0.1% NHS, 0.1% normal human serum.
[3] abbreviates: Homo sapiens, Jurkat, read-out: Karn EC50 (nM) 5% NHS, 5% normal human serum.

As to `CCC(=O)CCCCC[C@H](NCC1CC1)c1ncc(-c2cc3ccc(C)nc3cc2OC)[nH]1` [Compound 398, (S)-9-((cyclopropylmethyl)amino)-9-(5-(7-methoxy-2-methylquinolin-6-yl)-1H-imidazol-2-yl)nonan-3-one], the EC50 in the experiment with KARN cells (Jurkat 2C4) (setting [2]) is 5500 nM; in the experiment on KARN cells (Jurkat 2C4) (setting [3]), 10200 nM. In addition, the half-maximal inhibitory concentration (IC50) in experiment [1] amounted to 241 nM.

On to `CCC(=O)CCCCC[C@H](NC(=O)C1=NOC2(CCN(C)CC2)C1)c1ncc(-c2ccc(-c3ccncc3)cc2OC)o1` [Compound 395], for which the values for the concentration for a half-maximal effect (EC50) in the experiment with KARN cells (Jurkat 2C4) (setting [2]) and with KARN cells (Jurkat 2C4) (setting [3]) were 618 nM and 725 nM, respectively. In experiment [1], the IC50 was found to be 6.78 nM.

As to `CCC(=O)CCCCCC(NC(=O)C1CCC2(CC1)OC(=O)c1ncccc12)c1nnc(-c2cc3ccccc3nc2OC)o1` (stereo not drawn) [Compound 365], the EC50 in the experiment with KARN cells (Jurkat 2C4) (setting [2]) was found to be 1550 nM; in the experiment on KARN cells (Jurkat 2C4) (setting [3]), 3830 nM. The half-inhibitory concentration (IC50) in experiment [1] worked out at 23.2 nM.

Consider `CCC(=O)CCCCC[C@H](NC(=O)CCN1C(=O)C(CC)=NC12CCOCC2)c1ncc(-c2ccccc2)[nH]1` [Compound 384], for which the 50% effective concentration (EC50) in the experiment with KARN cells (Jurkat 2C4) (setting [2]) was determined as 2220 nM; with KARN cells (Jurkat 2C4) (setting [3]), 2410 nM. Further, the IC50 in experiment [1] was determined as 12.6 nM.

In the case of `CCC(=O)CCCCC[C@H](NC(=O)C1=NOC2(CCN(C)CC2)C1)c1ncc(-c2ccc(Cl)cc2OC)o1` [Compound 390], the EC50 with KARN cells (Jurkat 2C4) (read-out: Karn EC50 (nM) 0.1% NHS, 0.1% normal human serum) was 674 nM; in the experiment on KARN cells (Jurkat 2C4) (read-out: Karn EC50 (nM) 5% NHS, 5% normal human serum), 1680 nM. Besides, in experiment [1], the concentration for half-maximal inhibition (IC50) is 39.4 nM.

As to `CCC(=O)CCCCCC(N)(COC)c1ncc(-c2cc3ccc(C)nc3cc2OC)[nH]1` (stereo not drawn) [Compound 414, 9-amino-10-methoxy-9-[5-(7-methoxy-2-methylquinolin-6-yl)-1H-imidazol-2-yl]decan-3-one], the EC50 in the experiment on KARN cells (Jurkat 2C4) (setting [2]) and with KARN cells (Jurkat 2C4) (setting [3]) was more than 40000 nM each time. Besides, in experiment [1], the IC50 is more than 900 nM.

With `CCC(=O)CCCCC[C@H](NC(=O)[C@H]1CC[C@]2(CC1)OC(=O)c1ncccc12)c1nnc(-c2cc3ccccc3nc2OC)o1` [Compound 367], the EC50 is 1330 nM in the experiment with KARN cells (Jurkat 2C4) (setting [2]) and 4490 nM in the experiment on KARN cells (Jurkat 2C4) (setting [3]). Also, the IC50 in experiment [1] was found to be 10.7 nM.

Turning to `CCC(=O)CCCCC[C@H](NC(=O)C1=NOC2(CCN(CC3CC3)CC2)C1)c1ncc(-c2cc3ccc(=O)n(C)c3cc2F)o1` [Compound 387], the EC50 worked out at 1540 nM in the experiment with KARN cells (Jurkat 2C4) (setting [2]) and 1700 nM in the experiment on KARN cells (Jurkat 2C4) (setting [3]). Besides, the concentration for half-maximal inhibition (IC50) in experiment [1] amounted to 48.1 nM.

The EC50 is the concentration needed to bring the measured effect to its halfway point. A word on the IC50: it is the concentration that gives 50% inhibition.
